Values joined by “and” are separate entries in the source; they are usually repeats but may differ in a detail not shown here. Equal entries are not always repeated.
Tests used:
[1] = CellTiter-Blue cell viability assay, HEK-293 (24 h); type: cell-based, human; settings: human, HEK-293 cells, CellTiter-Blue, 24 h incubation, 10 μM test compound, standardised to DMSO control
Protocol: (§1) Human Embryonic Kidney cells (HEK‐293) and human breast cancer cells (MCF‐7, MDA‐MB‐231 and HCC1954) were cultured in complete growth media: […] 1X (Gibco); 10% v/v Fetal Bovine Serum (FBS, Sigma Dorset UK) and L‐glutamine (2 mM, Invitrogen). SW‐480‐WT cells were maintained in selective media made up of Dulbecco's Modified Eagle Medium (Gibco), enriched with […] of Geneticin Selective Antibiotic (G418 Sulfate; Gibco, Thermo Fisher). Cells were incubated at a 5% CO2 atmosphere at 37°C.
(§2) Cells were cultured in 96‐well plates in 90 μL at a seeding density of 1 × 10^6 cells per well. Compound samples were prepared at different concentrations (1 mM, 100 μM, 10 μM, 1 μM, 100 nM, 10 nM) and 10 μL of each concentration was seeded in each well. Two different negative controls were used: DMSO 0.01% and 0.001%. Paclitaxel (30% w/v) was used as a positive control. Cells were treated for 24 h after which 20 μL of CellTitre‐Blue reagent (Promega, Southampton, UK) was added and incubated for 2 h at 37°C in 5% CO2. Fluorescence was measured at 560/590 nm on a Fluorostar Optima plate reader (BMG Labtech, Bucks, UK). Assay end points were normalised to 0% (DMSO only) and fitted to a semilog plot using at least n = 3 technical replicates (n = 6 for DMSO control and paclitaxel control) and N = 3 independent replicates. The curve fit was performed using the GraphPad Prism software and the standard Hill equation.
(§3) In view of previous reports on Hsp90 inhibitors and their effects on cancer cell viability (Eachkoti et al. [2014]) and clonogenicity (Kinzel et al. [2016]), new compounds were tested for inhibition of cell viability within both non‐tumourigenic (HEK‐293) and breast cancer cell lines (MDA‐MB‐231) at a fixed concentration of 10 μM. The well‐established CellTiter‐Blue endpoint assay was used to assess cell viability. New compounds were also assessed in a colony forming assay (MCF‐7 breast cancer cell line), used as an efficacy screening to provide an indication of the inhibition of clonogenicity for these small molecules (Table 1).

HEK-293 cells = assay: as above; type: cell-based, human; settings: Homo sapiens, HEK293; 24 h incubation time
Protocol: as §1, §2, §3

MDA-MB-231 cells = assay: CellTiter-Blue cell viability assay, MDA-MB-231 (24 h); type: cell-based, human; settings: for GI50: 24 h incubation time; for viability at 10 µM / % Viability (MDA-MB-231, 10 μM): CellTiter-Blue, 24 h incubation, 10 μM test compound, standardised to DMSO control
Protocol: as §1, §2, §3

MCF-7 cells = assay: Colony forming assay, MCF-7; type: cell-based, human; settings: for IC50: Homo sapiens, MCF7, 168 h, 7 days; for % Clonogenicity (MCF-7, 10 μM): percentage of survival colonies, 7-day incubation, standardised to DMSO control
Protocol: as §1
Cells were seeded in a 12‐well plate at 400 cells per well. One hour after the seeding of the cells, compounds (1 mM, 100 μM, 10 μM, 1 μM, 100 nM, 10 nM) or vehicle were added into the wells in triplicate (DMSO vehicle 0.1% and 1%). After 7 days, colonies were stained with 350 μL of crystal violet solution, incubated for 30 min at room temperature, then wells were washed in water and dried. At least the best 3 independent experiments out of 5 independent repeats were used to perform the statistical analysis of the results. Colonies were counted by GelCount Colony Counter (Oxford Optronix Ltd.) using the GelCount 1.1.8.0 software. Assay end points were normalised to 0% (DMSO only) and fitted to a semi‐log plot using at least n = 3 technical replicates (n = 6 for DMSO control and N = 3 independent replicates). The curve fit was performed using GraphPad Prism.
as §3

[2] = molecular target: T1, Recombinant human Hsp90 alpha protein (Homo sapiens, UniProt P07900); assay: Transcreener ADP FP Hsp90 ATPase assay; type: biochemical; settings: Recombinant human HSP90, 100 μM ATP; read-out: ATPase assay on rh-Hsp90 IC50
T1 construct: human full‐length protein, expressed in Escherichia coli; His tag (C); purchased Abcam ab80369; host or cells: Escherichia coli
Protocol: Transcreener ADP (cat. no. 3004‐1K) and ADP2 (cat. no. 3010‐1K) FP assay kits were obtained from Bellbrook Laboratories. Recombinant human Hsp90 alpha protein (active), human full‐length protein, expressed in Escherichia coli with > 90% purity and C‐terminus His tag, was purchased from Abcam (ab80369). All FP assays were carried out in black, 384‐well, low‐volume, polystyrene nonbinding microplates from Corning Life Sciences. All basic buffer components were obtained from Sigma‐Aldrich Chemical Co. 17‐AAG (Figure 1) was obtained from Abcam. Using the Transcreener ADP FP kit, the conditions for the recombinant human Hsp90 ATPase reaction were 50 mM HEPES (pH 7.4), 20 mM KCl, 2 mM EGTA, 4 mM MgCl2, and 0.01% Brij‐35 in a 10‐μL total assay volume. The final assay concentration of ATP was 100 μM for Hsp90. Due to the relatively low level of ATPase activity compared with other enzymes, the plate was incubated at 37°C and run over 1, 2 and 3 h time points. The reaction was stopped, and the ADP was detected by adding 10 μL of 50 mM HEPES (pH 7.4), 400 mM NaCl, 20 mM EDTA, 0.01% Brij35, 75 μg/mL anti‐ADP monoclonal antibody, and 4 nM ADP far red tracer. The plate was sealed, centrifuged at 600 g for 1 min, and left at room temperature for 1 h. FP readings for the Hsp90 ATPase Transcreener assays were performed on a Clariostar plate reader ([…]). A blank mP signal composed of protein, antibody, labelled ADP, but no ATP substrate gave similar mP values to those seen in the no‐protein controls. The upper limit of the assay window was defined by a no‐protein control, and the mP in the presence of heat shock protein was subtracted from this control to generate a change in polarisation (ΔmP), which was plotted on the activity graphs. Therefore, the data take into account the spontaneous hydrolysis of ATP. Each value is the mean of triplicate determinations with standard deviations (SD) shown. IC50 values were calculated using GraphPad Prism software with the nonlinear regression curve fitted to the log (inhibitor concentration) against the raw mP values on the linear portion of the standard curve.

Structure (SMILES) | viability at 24 h, 10 µM [1] [%] | GI50 (HEK-293 cells) [µM] | GI50 (MDA-MB-231 cells; Homo sapiens, MDA-MB-231, 24 h) [µM] | viability at 10 µM (MDA-MB-231 cells; Homo sapiens, MDA-MB-231, 24 h) [%] | IC50 (MCF-7 cells) [µM] | % Clonogenicity (MCF-7, 10 μM) (MCF-7 cells) | IC50 [2] [µM] | % Viability (MDA-MB-231, 10 μM) (MDA-MB-231 cells) [%] | GI50 (MDA-MB-231 cells) [µM]
COc1ccc(C2NC(=O)NC(C)=C2C(=O)OCc2ccccc2)c(F)c1 (stereo not shown) [Compound 5a, Benzyl 4‐(2‐Fluoro‐4‐Methoxyphenyl)‐6‐Methyl‐2‐Oxo‐1,2,3,4‐Tetrahydropyrimidine‐5‐Carboxylate] | 90.6 ± 3.35 | 71.5 | 86.2 | 91.33 ± 0.64 | 5.03 | 71.87 ± 4.77% | 5.36 | – | –
COc1ccc(C2NC(=O)NC(C)=C2C(=O)OCc2ccc(OC)c(OC)c2)c(F)c1 (stereo not shown) [Compound 5b, 3,4‐Dimethoxybenzyl 4‐(2‐Fluoro‐4‐Methoxyphenyl)‐6‐Methyl‐2‐Oxo‐1,2,3,4‐Tetrahydropyrimidine‐5‐Carboxylate] | 99.9 ± 1.5 | 44.9 | 72.1 | 89.7 ± 1.37 | 0.68 | 71.39 ± 2.94% | 13.1 | – | –
COc1ccc(COC(=O)C2=C(C)NC(=O)NC2c2ccc(Cl)cc2)cc1OC (stereo not shown) [Compound 5c, 3,4‐Dimethoxybenzyl‐4‐(4‐Chlorophenyl)‐6‐Methyl‐2‐Oxo‐1,2,3,4‐Tetrahydropyrimidine‐5‐Carboxylate] | 99.4 ± 3.16 | 12.6 | 22.7 | < 80 | 2.46 | 64.29 ± 3.69% | 4.28 | 73.55 ± 3.50 | –
CC1=C(C(=O)OCc2ccccc2)C(c2ccc(OC(F)(F)F)cc2F)NC(=O)N1 (stereo not shown) [Compound 5f, Benzyl 4‐(2‐Fluoro‐4‐(Trifluoromethoxy)phenyl)‐6‐Methyl‐2‐Oxo‐1,2,3,4‐Tetrahydropyrimidine‐5‐Carboxylate] | 95.1 ± 3.82 | 16.4 | 98.9 | 85.7 ± 2.65 | 2.29 | 72.41 ± 3.21% | 13.7 | – | –
COc1ccc(COC(=O)C2=C(C)NC(=O)NC2c2cccc(Cl)c2)cc1OC (stereo not shown) [Compound 5g, 3,4‐Dimethoxybenzyl 4‐(3‐Chlorophenyl)‐6‐Methyl‐2‐Oxo‐1,2,3,4‐Tetrahydropyrimidine‐5‐Carboxylate] | 96.7 ± 3.77 | 39.1 | 19.3 | < 80 | 0.83 | 50.04 ± 2.3% | 32.6 | 72.16 ± 7.20 | –
COc1cccc(COC(=O)C2=C(C)NC(=O)NC2c2ccc(Cl)cc2)c1 (stereo not shown) [Compound 5h, 3‐Methoxybenzyl 4‐(4‐Chlorophenyl)‐6‐Methyl‐2‐Oxo‐1,2,3,4‐Tetrahydropyrimidine‐5‐Carboxylate] | 81 ± 2.36 | 12.3 | 23.7 | 88 ± 3.1 | 9.08 | 42.34 ± 4.80% | 6.47 | – | –
COc1ccc(COC(=O)C2=C(C)NC(=O)NC2c2ccc(Cl)cc2)cc1 (stereo not shown) [Compound 5i, 4‐Methoxybenzyl 4‐(4‐Chlorophenyl)‐6‐Methyl‐2‐Oxo‐1,2,3,4‐Tetrahydropyrimidine‐5‐Carboxylate] | 94.3 ± 2.95 | 98.5 | 40 | 83.26 ± 0.69 | 0.56 | 8.39% and 8.39 ± 2.84% | 9.59 | – | 40
COc1ccc(COC(=O)C2=C(C)NC(=O)NC2c2ccccc2Cl)cc1OC (stereo not shown) [Compound 5j, 3,4‐Dimethoxybenzyl 4‐(2‐Chlorophenyl)‐6‐Methyl‐2‐Oxo‐1,2,3,4‐Tetrahydropyrimidine‐5‐Carboxylate] | 93 ± 2.59 | 58 | 65.7 | < 80 | 3.49 | 58.18 ± 4.42% | 32.5 | 76.50 ± 4.28 | –
COc1ccc(C2NC(=O)NC(C)=C2C(=O)OCc2ccc3c(c2)OCO3)cc1 (stereo not shown) [Compound 5k, Benzo[d] [1,3] Dioxol‐5‐ylmethyl 4‐(4‐Methoxyphenyl)‐6‐Methyl‐2‐Oxo‐1,2,3,4‐Tetrahydropyrimidine‐5‐Carboxylate] | 98.6 ± 1.31 | 63 | 77.2 | 98.7 ± 2.6 | 2.46 | 99.85 ± 3.27% | 20.2 | – | –
CC1=C(C(=O)OCc2ccccc2)C(c2ccc(F)cc2)NC(=O)N1 (stereo not shown) [Compound 5l, Benzyl 4‐(4‐Fluorophenyl)‐6‐Methyl‐2‐Oxo‐1,2,3,4‐Tetrahydropyrimidine‐5‐Carboxylate] | 98 ± 1.89 | 52.9 | 86.6 | 100 ± 2.96 | 0.89 | 82.62 ± 2.93% | 22.9 | – | –
CC1=C(C(=O)OCc2ccccc2)C(c2ccccc2F)NC(=O)N1 (stereo not shown) [Compound 5m, Benzyl 4‐(2‐Fluorophenyl)‐6‐Methyl‐2‐Oxo‐1,2,3,4‐Tetrahydropyrimidine‐5‐Carboxylate] | 97.7 ± 3.27 | 20.4 | 84.9 | 95.2 ± 3.72 | 15.7 | 99.95 ± 2.40% | 16.6 | – | –
CC1=C(C(=O)OCc2ccccc2)C(c2ccc(C)cc2F)NC(=O)N1 (stereo not shown) [Compound 5n, Benzyl 4‐(2‐Fluoro‐4‐Methylphenyl)‐6‐Methyl‐2‐Oxo‐1,2,3,4‐Tetrahydropyrimidine‐5‐Carboxylate] | 98.7 ± 2.49 | 39.6 | 86.7 | 97.3 ± 1.3 | 7.17 | 90.54 ± 0.81% | 74.6 | – | –

Source: paper PMC12704579, “New Anticancer 4‐Aryldihydropyrimidinone‐5‐Carboxylates Targeting Hsp90” (Chemical Biology & Drug Design, 2025)
